Assay results: patent US20240116985A1, “STAPLED PEPTIDES AND METHODS THEREOF” (priority 2020, published 2024)

Columns and labels:
[1] = target: T1, full-length B-Catenin (Uniprot ID P35222) (Homo sapiens, UniProt P35222); assay: Alphascreen binding assay (beta-catenin / biotin-TCF4 10-53)
T1 construct: 65 nM full-length B-Catenin (Uniprot ID P35222)
T1 sequence (P35222 1-781): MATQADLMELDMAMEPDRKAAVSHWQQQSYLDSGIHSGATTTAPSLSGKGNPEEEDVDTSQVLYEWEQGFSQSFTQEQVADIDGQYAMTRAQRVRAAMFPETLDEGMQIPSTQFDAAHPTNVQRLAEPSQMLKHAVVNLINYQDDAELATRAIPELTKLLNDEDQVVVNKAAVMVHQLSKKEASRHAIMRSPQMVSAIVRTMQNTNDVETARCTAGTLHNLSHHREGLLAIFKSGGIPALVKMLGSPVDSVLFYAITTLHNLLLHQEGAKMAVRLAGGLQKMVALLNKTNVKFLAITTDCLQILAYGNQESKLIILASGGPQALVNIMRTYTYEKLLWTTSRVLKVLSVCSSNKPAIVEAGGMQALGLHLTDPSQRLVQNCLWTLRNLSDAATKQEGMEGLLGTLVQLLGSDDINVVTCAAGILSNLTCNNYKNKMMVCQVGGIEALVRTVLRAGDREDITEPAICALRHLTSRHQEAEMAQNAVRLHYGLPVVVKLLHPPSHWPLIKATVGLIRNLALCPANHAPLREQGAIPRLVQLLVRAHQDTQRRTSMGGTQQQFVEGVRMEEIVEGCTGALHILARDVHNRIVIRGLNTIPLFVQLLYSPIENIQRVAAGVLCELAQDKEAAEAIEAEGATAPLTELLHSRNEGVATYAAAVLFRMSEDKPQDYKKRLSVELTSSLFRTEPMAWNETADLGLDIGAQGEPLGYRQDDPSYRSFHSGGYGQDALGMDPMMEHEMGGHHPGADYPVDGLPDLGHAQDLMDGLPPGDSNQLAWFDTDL
Procedure, shortened: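 Final concentrations: 65 nM full-length human β-catenin plus 10 nM biotin-TCF4(10-53) peptide, test peptide 3-fold from 10 uM to 5 nM, preincubated 15 min at 20 °C in Tris pH 8.0/250 mM NaCl buffer. Nickel-chelate AlphaScreen donor/acceptor beads then added for 60 min in the dark; duplicate reads fitted to 1:1 binding model with Hill slope.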

[2] = CHI Log D procedure; format: physicochemical; conditions: for CHI Log D: pH 7.4; for chromatographic logD: pH 7.4, CHI Log D

| SMILES | EC50 [1] | CHI Log D [2] | chromatographic logD [2] |
| --- | --- | --- | --- |
| CC(=O)N1CCC[C@]12CC=CCCCC1(CCCC=CCCCCCC[C@@](C)(C(=O)N[C@@H](Cc3ccccc3)C(=O)N[C@@H](Cc3c[nH]c4ccccc34)C(=O)N[C@@H](CCC(N)=O)C(N)=O)NC(=O)[C@H](C(C)C)NC(=O)[C@H](Cc3ccccc3)NC(=O)[C@H](C)NC(=O)[C@H](C)NC(=O)[C@H](CCC(=O)O)NC(=O)[C@H](CC(=O)O)NC1=O)NC(=O)[C@H](C)NC(=O)[C@H](Cc1ccccc1)NC2=O (stereo partly drawn) [I-201, Ac-PL3-Phe-Ala-B5-Asp-Glu-Ala-Ala-Phe-Val-S8-Phe-Trp-Gln-NH2] | 6.16 µM | – | 2.94 |
| CC(=O)N[C@@H](Cc1ccccc1)C(=O)N[C@@H](CC(=O)O)C(=O)N[C@@H](C)C(=O)N[C@]1(C)CCCCCCC=CCOC(=O)N2CC[C@@](C(=O)N[C@@H](Cc3ccccc3)C(=O)N[C@@H](Cc3c[nH]c4ccccc34)C(=O)N[C@@H](CCC(N)=O)C(N)=O)(C2)NC(=O)[C@H]([C@@H](C)O)NC(=O)[C@H](Cc2ccccc2)NC(=O)[C@H](C)NC(=O)[C@H](C)NC(=O)[C@H](CC(=O)O)NC(=O)[C@H](CC(=O)O)NC1=O [I-221, Ac-Phe-Asp-Ala-R8-Asp-Asp-Ala-Ala-Phe-Thr-PyrS-Phe-Trp-Gln-NH2] | 6.58 µM | 1.34 | – |
| CC(=O)N[C@@H](Cc1ccccc1)C(=O)N[C@@H](CC(=O)O)C(=O)N[C@@H](C)C(=O)N[C@]1(C)CCCCCCC=CCOC(=O)N2CC[C@@](C(=O)N[C@@H](Cc3ccccc3)C(=O)N[C@@H](Cc3c[nH]c4ccccc34)C(=O)N[C@@H](CCC(N)=O)C(N)=O)(C2)NC(=O)[C@H]([C@@H](C)O)NC(=O)[C@H](Cc2ccccc2)NC(=O)[C@H](C)NC(=O)[C@H](C)NC(=O)[C@H](CC(=O)O)NC(=O)[C@H](CC(=O)O)NC1=O [I-222, Ac-Phe-Asp-Ala-R8-Asp-Asp-Ala-Ala-Phe-Thr-PyrS-Phe-Trp-Gln-NH2] | 6.58 µM | 1.34 | – |
| CC(=O)N[C@@H](Cc1ccccc1)C(=O)N[C@@H](CC(=O)O)C(=O)N[C@@H](C)C(=O)N[C@]1(C)CCCCCCC=CCOC(=O)N2CC[C@@](C(=O)N[C@@H](Cc3ccccc3)C(=O)N[C@@H](Cc3c[nH]c4ccccc34)C(=O)N[C@@H](CCC(N)=O)C(N)=O)(C2)NC(=O)[C@H]([C@@H](C)O)NC(=O)[C@H](Cc2ccccc2)NC(=O)[C@H](C)NC(=O)[C@H](C)NC(=O)[C@H](CC(=O)O)NC(=O)[C@H](CC(=O)O)NC1=O [I-224, Ac-Phe-Asp-Ala-R8-Asp-Asp-Ala-Ala-Phe-Thr-PyrS-Phe-Trp-Gln-NH2] | 4.12 µM | 1.401 | – |
| CC(=O)N[C@@H](Cc1ccccc1)C(=O)N[C@@H](CC(=O)O)C(=O)N[C@@H](C)C(=O)N[C@]1(C)CCCCCCC=CCOC(=O)N2CC[C@@](C(=O)N[C@@H](Cc3c(F)c(F)c(F)c(F)c3F)C(=O)N[C@@H](Cc3c[nH]c4ccccc34)C(=O)N[C@@H](CCC(N)=O)C(N)=O)(C2)NC(=O)[C@H](C(C)C)NC(=O)[C@H](Cc2ccccc2)NC(=O)[C@H](C)NC(=O)[C@H](C)NC(=O)[C@H](CC(=O)O)NC(=O)[C@H](CC(=O)O)NC1=O [I-225, Ac-Phe-Asp-Ala-R8-Asp-Asp-Ala-Ala-Phe-Val-PyrS-Pff-Trp-Gln-NH2] | 7.63 µM | 1.497 | – |
| CC(=O)N[C@@H](Cc1ccccc1)C(=O)N[C@@H](CC(=O)O)C(=O)N[C@@H](C)C(=O)N[C@]1(C)CCCCCCC=CCOC(=O)N2CC[C@@](C(=O)N[C@@H](Cc3c(F)c(F)c(F)c(F)c3F)C(=O)N[C@@H](Cc3c[nH]c4ccccc34)C(=O)N[C@@H](CCC(N)=O)C(N)=O)(C2)NC(=O)[C@H](C(C)C)NC(=O)[C@H](Cc2ccccc2)NC(=O)[C@H](C)NC(=O)[C@H](C)NC(=O)[C@H](CC(=O)O)NC(=O)[C@H](CC(=O)O)NC1=O [I-226, Ac-Phe-Asp-Ala-R8-Asp-Asp-Ala-Ala-Phe-Val-PyrS-Pff-Trp-Gln-NH2] | 7.63 µM | 1.497 | – |

Further molecules by falling EC50 [1], results first:

| EC50 [1] | CHI Log D [2] | chromatographic logD [2] | SMILES |
| --- | --- | --- | --- |
| 4.12 µM | 1.401 | – | CC(=O)N[C@@H](Cc1ccccc1)C(=O)N[C@@H](CC(=O)O)C(=O)N[C@@H](C)C(=O)N[C@]1(C)CCCCCCC=CCOC(=O)N2CC[C@@](C(=O)N[C@@H](Cc3ccccc3)C(=O)N[C@@H](Cc3c[nH]c4ccccc34)C(=O)N[C@@H](CCC(N)=O)C(N)=O)(C2)NC(=O)[C@H]([C@@H](C)O)NC(=O)[C@H](Cc2ccccc2)NC(=O)[C@H](C)NC(=O)[C@H](C)NC(=O)[C@H](CC(=O)O)NC(=O)[C@H](CC(=O)O)NC1=O [I-223, Ac-Phe-Asp-Ala-R8-Asp-Asp-Ala-Ala-Phe-Thr-PyrS-Phe-Trp-Gln-NH2] |
| 2.14 µM | – | 2.41 | CC(=O)N1CCC[C@]12CC=CCCCC1(CCCC=CCCCCCC[C@@](C)(C(=O)N[C@@H](Cc3ccccc3)C(=O)N[C@@H](Cc3c[nH]c4ccccc34)C(=O)N[C@@H](CCC(N)=O)C(N)=O)NC(=O)[C@H](C(C)C)NC(=O)[C@H](Cc3ccccc3)NC(=O)[C@H](C)NC(=O)[C@H](C)NC(=O)[C@H](CCC(=O)O)NC(=O)[C@H](Cc3c[nH]cn3)NC1=O)NC(=O)[C@H](C)NC(=O)[C@H](CC(=O)O)NC2=O (stereo partly drawn) [I-206, Ac-PL3-Asp-Ala-B5-His-Glu-Ala-Ala-Phe-Val-S8-Phe-Trp-Gln-NH2] |
| 1.4 µM | 2.088 | – | CC(=O)N1CCC[C@]12CC=CCCCC1(CCCC=CCCCCCC[C@@](C)(C(=O)N[C@@H](Cc3ccccc3)C(=O)N[C@@H](Cc3c[nH]c4ccccc34)C(=O)N[C@@H](CCC(N)=O)C(N)=O)NC(=O)[C@H](C(C)C)NC(=O)[C@H](Cc3cc(F)c(F)c(F)c3)NC(=O)[C@H](C)NC(=O)[C@H](C)NC(=O)[C@H](CCC(=O)O)NC(=O)[C@H](CC(=O)O)NC1=O)NC(=O)[C@H](C)NC(=O)[C@H](CC(=O)O)NC2=O (stereo partly drawn) [I-209, Ac-PL3-Asp-Ala-B5-Asp-Glu-Ala-Ala-345FF-Val-S8-Phe-Trp-Gln-NH2] |
| 1.4 µM | 2.088 | – | CC(=O)N1CCC[C@]12CC=CCCCC1(CCCC=CCCCCCC[C@@](C)(C(=O)N[C@@H](Cc3ccccc3)C(=O)N[C@@H](Cc3c[nH]c4ccccc34)C(=O)N[C@@H](CCC(N)=O)C(N)=O)NC(=O)[C@H](C(C)C)NC(=O)[C@H](Cc3cc(F)c(F)c(F)c3)NC(=O)[C@H](C)NC(=O)[C@H](C)NC(=O)[C@H](CCC(=O)O)NC(=O)[C@H](CC(=O)O)NC1=O)NC(=O)[C@H](C)NC(=O)[C@H](CC(=O)O)NC2=O (stereo partly drawn) [I-210, Ac-PL3-Asp-Ala-B5-Asp-Glu-Ala-Ala-345FF-Val-S8-Phe-Trp-Gln-NH2] |
| 0.796 µM | 2.262 | – | CC(=O)N1CCC[C@]12CC=CCCCC1(CCCC=CCCCCCC[C@@](C)(C(=O)N[C@@H](Cc3ccccc3)C(=O)N[C@@H](Cc3c[nH]c4ccccc34)C(=O)N[C@@H](CCC(N)=O)C(N)=O)NC(=O)[C@H](C(C)C)NC(=O)[C@H](Cc3ccccc3)NC(=O)[C@H](C)NC(=O)[C@H](C)NC(=O)[C@H](CCC(=O)O)NC(=O)[C@H](CC(=O)O)NC1=O)NC(=O)[C@H](C)NC(=O)[C@H](CC(N)=O)NC2=O (stereo partly drawn) [I-199, Ac-PL3-Asn-Ala-B5-Asp-Glu-Ala-Ala-Phe-Val-S8-Phe-Trp-Gln-NH2] |
| 0.367 µM | 2.101 | – | CC(=O)N1CCC[C@]12CC=CCCCC1(CCCC=CCCCCCC[C@@](C)(C(=O)N[C@@H](Cc3ccccc3)C(=O)N[C@@H](Cc3c[nH]c4ccccc34)C(=O)N[C@@H](CCC(N)=O)C(N)=O)NC(=O)[C@H](C(C)C)NC(=O)[C@H](Cc3cc(F)c(F)c(F)c3)NC(=O)[C@H](C)NC(=O)[C@H](C)NC(=O)[C@H](CCC(=O)O)NC(=O)[C@H](CC(=O)O)NC1=O)NC(=O)[C@H](C)NC(=O)[C@H](CC(=O)O)NC2=O (stereo partly drawn) [I-211, Ac-PL3-Asp-Ala-B5-Asp-Glu-Ala-Ala-345FF-Val-S8-Phe-Trp-Gln-NH2] |
| 0.367 µM | 2.101 | – | CC(=O)N1CCC[C@]12CC=CCCCC1(CCCC=CCCCCCC[C@@](C)(C(=O)N[C@@H](Cc3ccccc3)C(=O)N[C@@H](Cc3c[nH]c4ccccc34)C(=O)N[C@@H](CCC(N)=O)C(N)=O)NC(=O)[C@H](C(C)C)NC(=O)[C@H](Cc3cc(F)c(F)c(F)c3)NC(=O)[C@H](C)NC(=O)[C@H](C)NC(=O)[C@H](CCC(=O)O)NC(=O)[C@H](CC(=O)O)NC1=O)NC(=O)[C@H](C)NC(=O)[C@H](CC(=O)O)NC2=O (stereo partly drawn) [I-212, Ac-PL3-Asp-Ala-B5-Asp-Glu-Ala-Ala-345FF-Val-S8-Phe-Trp-Gln-NH2] |
| 0.173 µM | 2.278 | – | CC(=O)N1CCC[C@]12CC=CCCCC1(CCCC=CCCCCCC[C@@](C)(C(=O)N[C@@H](Cc3ccccc3)C(=O)N[C@@H](Cc3c[nH]c4ccccc34)C(=O)N[C@@H](CCC(N)=O)C(N)=O)NC(=O)[C@H](C(C)C)NC(=O)[C@H](Cc3ccccc3)NC(=O)[C@H](C)NC(=O)[C@H](C)NC(=O)[C@H](CCC(=O)O)NC(=O)[C@H](CC(=O)O)NC1=O)NC(=O)[C@H](C)NC(=O)[C@H](CC(N)=O)NC2=O (stereo partly drawn) [I-200, Ac-PL3-Asn-Ala-B5-Asp-Glu-Ala-Ala-Phe-Val-S8-Phe-Trp-Gln-NH2] |
